Source: patent US6265445A, “Antiarrhythmic compounds” (priority 1997, dated 2001)
Where two headings read alike, the source gives them in different places.

Columns and labels:
[1] = tested on: Purkinje's fibres isolated from dog heart; assay: Intracellular microelectrode technique: action potential parameters, Purkinje's fibres; design: species or system mongrel dogs
Procedure: (§1) The method used is essentially in agreement with the method of Papp et al. [J. Cardiovascular Pharmacol. Ther. 1, 287-296 (1996)].
(§2) Right ventricular papillary muscle and Purkinje's fibres were prepared from the hearts of mongrel dogs (weighing 5 to 10 kg each). The preparations were placed into an organ bath (37° C.) containing modified Tyrode's nutrient medium. The preparations were excited by a basal frequency of 1 Hz. During the experiments, the frequency of stimulation was varied under broad limits by a computer-guided stimulator. The intracellular action potentials were registered by using glass capillary microelectrodes filled with 3 N potassium chloride solution (standard intracellular microelectrode techniques). The resting potential (RP), the amplitude of the action potential (APA) as well as the duration of the action potential (APD) were measured by using an IBM 386 compatible computer by means of an own-developed software. The compounds under test were directly added into the organ bath after dilution of the stock solutions according to the final concentrations desired. The effects of the compounds were observed after an incubation time of 30 to 40 minutes.

dog Purkinje's fibres = assay: Effect on early after-depolarization induced by dofetilide and BaCl2; conditions: 2 μM; EAD induced by 1 μM dofetilide and 20 μM BaCl2
Procedure: An early after-depolarization (EAD) was induced on dog Purkinje's fibres by the simultaneous use of 1 μM dofetilide and 20 μM BaCl2. These EAD-s were abolished by the addition of the compound (2 μM) of Example 15.

[2] = tested on: isolated right ventricular trabecule of dog heart; assay: Extracellular electrophysiological measurements: impulse conduction time and effective refractory period; design: species or system mongrel dogs; conditions: for activation at 2 µM / activation at 10 µM: Canis lupus familiaris
Procedure: Right ventricular trabecules were prepared from the heart of mongrel dogs (weighing 5 to 10 kg each). The surviving heart pieces were placed into an organ bath (37° C.) containing modified Tyrode's nutrient medium and excited by point stimulation with a basal frequency of 1 Hz. Extracellular bipolar platinum electrodes were placed on the surface of the preparations, by means of which the propagation of the superficial potentials were registered; thus, the determination of the time of impulse conduction or the rate of impulse conduction, respectively, and the effective refractory period (ERP) became possible. During our experiments,the frequency of stimulation was temporarily varied from 0.5 Hz up to 3 Hz. The tested compounds were directly added to the organ bath after dilution of the stock solution according to the desired final concentration.

[3] = tested on: right ventricular papillary muscle of dogs; assay: Intracellular microelectrode technique: action potential parameters, ventricular papillary muscle; design: species or system mongrel dogs
Procedure: as §1, §2

in vivo = conditions: mouse, in vivo
Procedure: (§3) Determination of the LD50 Value on Mice
(§4) Animal: male CDI mice (starved) weighing 20 to 22 g each at the time of treatment.
(§5) Observation period: 2 weeks.
(§6) Vehicle: 1 to 2% of Tween-80 in distilled water or in physiological saline, respectively.
(§7) Treatment volume 0.1 ml/10 g of body-weight.

mice = assay: in vivo
Procedure: as §3, §4, §5, §6, §7

[4] = tested on: right ventricular papillary muscle; assay: Measurement of the contractile force in vitro; design: species or system rabbits; conditions: 1 Hz; expected therapeutic concentration
Procedure: The method used is essentially in agreement with the method of Virag et al. [Gen. Pharmac. 27, pp. 551-556 (1996)].
Papillary muscles of hearts of rabbits (weighing 2 to 3 kg each) were prepared and placed into an organ bath (37° C.) containing modified Tyrode's nutrient medium. The preparations were stimulated by point-stimulation with a basal frequency of 1 Hz. The contractile force was measured by using an auxotonic method. The compounds under test were directly added into the organ bath after dilution of the stock solution according to the final concentration desired. The effects of compounds were observed after an incubation period of 30 to 45 minutes.
Using this method used information can be obtained concerning the direct cardiac effects of the compounds investigated. The effect of the compound of Example 15 on the contractile force is illustrated on the right ventricular papillary muscle at a frequency of 1 Hz in FIG. 2.

[5] = tested on: occlusion and reperfusion arrhythmias in anaesthetized rabbits; assay: Occlusion and reperfusion induced arrhythmias following acute coronary artery ligation in anaesthetized rabbits; type: in vivo, male rabbits; conditions: 0.03 mg/kg
Procedure: The method used is essentially in agreement with the method of Thiemermann et al. [Br. J. Pharmacol. 97, pp. 401-408 (1989)].
A loose surgical thread loop was placed round the left circumflex coronary artery of the heart following thoracotomy in pentobarbital (30 mg/kg i.v.) anaesthetized male rabbits (weighing 2 to 3 kg); both ends of the thread loop were led out from the chest through an elastic tube. Standard electrocardiogram was registered by using needle electrodes under the skin. The blood pressure of animals was continuously measured by using a catheter placed into the common carotid artery. After stabilization of the blood pressure and heart frequency, the loose loop was tightened to establish a regional myocardial ischaemia. After 10 minutes of ischaemia, the ligature was released and a reperfusion for 10 minutes was established. The survival, the incidence of arrhythmias, the time of onset of arrhythmia and the length of episodes were registered. The animals received physiological saline solution (control) intravenously (2 ml/kg) or 0.03 mg/kg of the compound of Example 15 or a 3 mg/kg dose of d-sotalol at 5 minutes before the occlusion.
By using this method, it can be stated whether the compound under test would be effective for the protection from arrhythmias following coronary artery ligation.

[6] = 1 Hz, read-out: Prolongation (%) of ERP
[7] = 1 Hz, read-out: Prolongation (%) of impulse conduction time
[8] = 3 Hz, read-out: Prolongation (%) of ERP
[9] = 3 Hz, read-out: Prolongation (%) of impulse conduction time
[10] = Table 4, ventricular muscle, 5 μM, 1 Hz, N = 6

Cc1cccc(C)c1OCC(C)N(C)CCc1ccc(NS(C)(=O)=O)cc1.Cl (centres unmarked) [Example 15, N-[4-[2-[N-Methyl-N-[2-(2,6-dimethylphenoxy)-1-methylethyl]amino]ethyl]phenyl]methanesulfonamide hydrochloride]
effect on APD on Purkinje's fibres (in words) ([1]; 2 μM and 5 μM): abbreviated APD on Purkinje's fibres of the dog
APA (amplitude of the action potential) ([1]; 2 μM, N 3): 112.7 ± 3.9 mV
APD50 (time of 50% repolarization) ([1]; 2 μM, N 3): 180.7 ± 14.8 ms
APD90 (time of 90% repolarization) ([1]; 2 μM, N 3): 400.0 ± 47.4 ms
MDP (maximal diastolic potential) ([1]; 2 μM, N 3): -81.7 ± 2.4 mV
Vmax (maximum rate of depolarization) ([1]; 2 μM, N 3): 392.3 ± 23.7 V/s
APA ([1]; 5 μM, 1 Hz, N = 6): 111.0 ± 2.4 mV
APD50 ([1]; 5 μM, 1 Hz, N = 6): 121.3 ms
APD90 ([1]; 5 μM, 1 Hz, N = 6): 279.0 mS
RP ([1]; 5 μM, 1 Hz, N = 6): -86.0 ± 2.0 mV
Vmax ([1]; 5 μM, 1 Hz, N = 6): 439.3 V/s
effect on early after-depolarization (EAD) (in words) (dog Purkinje's fibres): abolished
activation at 2 µM [2, 6]: 11.6%
activation at 2 µM [2, 7]: 11.1%
activation at 2 µM [2, 8]: 13.6%
activation at 2 µM [2, 9]: 13.4%
activation at 10 µM [2, 6]: 22.8%
activation at 10 µM [2, 7]: 42%
activation at 10 µM [2, 8]: 31.3%
activation at 10 µM [2, 9]: 73.8%
effect on effective refractory period (in words) ([2]; concentrations of Table 1): simultaneous prolongation of the effective refractory period (ERP)
effect on impulse conduction (in words) ([2]; concentrations of Table 1): significantly prolonged the time of impulse conduction in a frequency-dependent manner
APA (amplitude of the action potential) ([3]; 5 μM): 106 mV
APD50 (time of 50% repolarization) ([3]; 5 μM): 210 ms
APD90 (time of 90% repolarization) ([3]; 5 μM): 261 ms
RP (resting potential) ([3]; 5 μM): -85 mV
Recovery Ampl ([3]; 5 μM): 83.6 V/s
Recovery Ampl/Plateau ([3]; 5 μM): 0.35
Recovery Plateau ([3]; 5 μM): 245.5 V/s
Vmax (maximum rate of depolarization) ([3]; 5 μM): 203 V/s
difference between the effects of Example 15 and its enantiomers (in words) ([3]; 5 μM): No essential difference could be observed
Trecovery (recovery time constant of Vmax) ([3]; 5 μM, Gy: kinetics of rapid restoration): 270.1 ms
effect on APD in ventricular muscle (in words) ([3]; 5 μM, ventricular muscle of the dog): prolonged APD in the ventricular muscle of the dog
APA [3, 10]: 106.3 ± 2.0 mV
APD50 [3, 10]: 209.5 ± 7.1 ms
APD90 [3, 10]: 260.5 ± 6.5 mS
RP [3, 10]: -84.5 ± 1.3 mV
Vmax [3, 10]: 203.0 ± 11.4 V/s
Vmax time of recovery T [3, 10]: 270.1 ± 14.4 ms
Vmax time of recovery amplitude [3, 10]: 83.6 ± 13.5 V/s
Vmax time of recovery amplitude, percentage in parentheses [3, 10]: 35 ± 5%
Vmax time of recovery plateau phase [3, 10]: 245.5 ± 28.0 V/s
effect on duration of the action potential (in words) ([3]; concentrations of Table 2): simultaneous prolongation of duration of the action potential (APD)
effect on Vmax (in words) ([3]; rapid recovery kinetics, concentrations of Table 2): mexiletine-like inhibition of Vmax
LD50 at 336 h (in vivo; ip): 170 mg/kg
LD50 at 336 h (in vivo; po): 550 to 650 mg/kg
cause of death (mice; i.p.): respiratory paralysis
Mortality (mice; i.p. 150 mg/kg): 1/10
Mortality (mice; i.p. 175 mg/kg): 7/10
Mortality (mice; i.p. 200 mg/kg): 9/10
cause of death (mice; p.o.): respiratory paralysis
Mortality (mice; p.o. 500 mg/kg): 0/5
Mortality (mice; p.o. 600 mg/kg): 2/5
Mortality (mice; p.o. 700 mg/kg): 5/5
negative inotropic action (in words) [4]: did not induce any negative inotropic action
antiarrhythmic effect against reperfusion arrhythmias (in words) [5]: strong antiarrhythmic effect
